Experimental data: patent US6461997B1, “Triazole sulfones having herbicidal activity” (Monsanto Technology LLC, priority 1999, dated 2002)

Columns and labels:
[1] = system: LAMPU (purple deadnettle); assay: Pre-emergence herbicidal activity, cool season; format: in vivo, Lamium purpureum; conditions: lowest tested rate with 80% or greater inhibition; rates 300, 100, 30, 10 g/ha; about 14 days
Procedure, shortened: (§1)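 Seeds sown in sterilised fertilised topsoil received surface-applied compound in 50:50 acetone/water, typically at 300, 100, 30 and 10 g/ha, then greenhouse-grown at 30/21° C (warm-season species) or 18/13° C (cool-season species). Percent inhibition versus untreated plants was scored at about 14 days, giving GR80; an asterisk marks activity short of 80% at the top rate.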

[2] = system: SORVU (shattercane); assay: Pre-emergence herbicidal activity, warm season; format: in vivo, Sorghum vulgare; conditions: GR80 = lowest tested rate (300, 100, 30, 10 g/ha) with 80% or greater inhibition; approx. 14 days after treating; 30/21° C.
Procedure, shortened: as §1

[3] = system: SINAR (wild mustard); assay: Pre-emergence herbicidal activity, cool season; format: in vivo, Sinapis arvensis; conditions: lowest tested rate with 80% or greater inhibition; rates 300, 100, 30, 10 g/ha; about 14 days
Procedure, shortened: as §1

[4] = system: PANMI (wild proso millet); assay: Pre-emergence herbicidal activity, warm season; format: in vivo, Panicum miliaceum; conditions: GR80 = lowest tested rate (300, 100, 30, 10 g/ha) with 80% or greater inhibition; approx. 14 days after treating; 30/21° C.
Procedure, shortened: (§2)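 Each pot received seeds on sterilized fertilized topsoil, a soil cover, and a surface spray of compound (300–10 g/ha, acetone/water 50:50). Plants grew about 14 days at 30/21 °C (PANMI, DIGSA) or 18/13 °C (ALOMY, POLCO) before inhibition was rated against untreated pots to give GR80.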

[5] = system: AEGCY (jointed goatgrass); assay: Post-emergence herbicidal activity, cool season; format: in vivo, Aegilops cylindrica; conditions: abraded plants sprayed at 300, 100, 30 and 10 g/ha; about 14 days after treatment
Experimental: (§3) In another set of tests, the post-emergence activity of compounds of this invention was evaluated on the cool season species listed above. The following procedure was used.
(§4) A pre-prepared topsoil mixture (described above) was placed in a pot and compacted to a depth of 1.0 to 1.25 cm from the top of the pot. Seeds of each of several monocotyledonous and dicotyledonous annual plant species were placed on top of the soil. The seeds were covered with a mixture of 50% topsoil and 50% Rediearth™ in sufficient quantity to level-fill the pots. The pots were then placed on a greenhouse bench and subirrigated as needed.
(§5) When plants growing from the seeds had emerged and reached a suitable growth stage for post-emergence treatment, typically 9 to 14 days after planting, above-ground parts of the plants were subjected to a pre-treatment involving abrasion to create greater opportunity for foliar uptake of subsequently applied compounds. Abrasion was performed using garnet 200w particles applied with a Sears Craftsman hand-held sandblaster operated at approximately 850 kPa (50 psig) pressure.
(§6) A known amount of each test compound dissolved or suspended in an appropriate organic solvent was diluted with a 50:50 mix of acetone and water and applied to the plants by spraying with a standard spray nozzle in a spray volume of […] at a spray pressure of 511 kPa (30 psig). Only the compounds of Examples 1, 8-15 and 17-22 were included in post-emergence tests. Application rates for these compounds were 300, 100, 30 and 10 g/ha. Control plants were abraded but not sprayed.
(§7) After treatment the plants were placed in a greenhouse with an 18/13° C. day/night temperature regime and were subsequently watered as needed for growth. Approximately 14 days after treatment, the plants were observed and herbicidal efficacy recorded as percent inhibition by comparison with control plants. GR80 values were assigned for each compound as described above for the pre-emergence tests.

[6] = system: LOLMG (annual ryegrass); assay: Post-emergence herbicidal activity, cool season; format: in vivo, Lolium multiflorum; conditions: abraded plants sprayed at 300, 100, 30 and 10 g/ha; about 14 days after treatment
Experimental: as §3, §4, §5, §6, §7

[7] = system: POLCO (wild buckwheat); assay: Pre-emergence herbicidal activity, cool season; format: in vivo, Polygonum convolvulus; conditions: lowest tested rate with 80% or greater inhibition; rates 300, 100, 30, 10 g/ha; about 14 days
Procedure, shortened: as §2

[8] = system: BROTE (downy brome); assay: Post-emergence herbicidal activity, cool season; format: in vivo, Bromus tectorum; conditions: abraded plants sprayed at 300, 100, 30 and 10 g/ha; about 14 days after treatment
Experimental: as §3, §4, §5, §6, §7

[9] = system: ALOMY (blackgrass); assay: Post-emergence herbicidal activity, cool season; format: in vivo, Alopecurus myosuroides; conditions: abraded plants sprayed at 300, 100, 30 and 10 g/ha; about 14 days after treatment
Experimental: as §3, §4, §5, §6, §7

[10] = system: SASKR (russian thistle); assay: Pre-emergence herbicidal activity, cool season; format: in vivo, Salsola kali; conditions: lowest tested rate with 80% or greater inhibition; rates 300, 100, 30, 10 g/ha; about 14 days
Procedure, shortened: as §1

[11] = system: VERPE (creeping speedwell); assay: Pre-emergence herbicidal activity, cool season; format: in vivo, Veronica persicaria; conditions: lowest tested rate with 80% or greater inhibition; rates 300, 100, 30, 10 g/ha; about 14 days
Procedure, shortened: as §1

[12] = system: GALAP (catchweed bedstraw); assay: Pre-emergence herbicidal activity, cool season; format: in vivo, Galium aparine; conditions: lowest tested rate with 80% or greater inhibition; rates 300, 100, 30, 10 g/ha; about 14 days
Procedure, shortened: as §1

[13] = system: AGSST (creeping bentgrass); assay: Post-emergence herbicidal activity, cool season; format: in vivo, Agrostis stolonifera; conditions: abraded plants sprayed at 300, 100, 30 and 10 g/ha; about 14 days after treatment
Experimental: as §3, §4, §5, §6, §7

[14] = system: AVEFA (wild oat); assay: Post-emergence herbicidal activity, cool season; format: in vivo, Avena fatua; conditions: abraded plants sprayed at 300, 100, 30 and 10 g/ha; about 14 days after treatment
Experimental: as §3, §4, §5, §6, §7

[15] = system: STEME (common chickweed); assay: Pre-emergence herbicidal activity, cool season; format: in vivo, Stellaria media; conditions: lowest tested rate with 80% or greater inhibition; rates 300, 100, 30, 10 g/ha; about 14 days
Procedure, shortened: as §1

[16] = system: AGRRE (quackgrass (seedling)); assay: Post-emergence herbicidal activity, cool season; format: in vivo, Elymus repens; conditions: abraded plants sprayed at 300, 100, 30 and 10 g/ha; about 14 days after treatment
Experimental: as §3, §4, §5, §6, §7

[17] = system: SETVI (green foxtail); assay: Post-emergence herbicidal activity, cool season; format: in vivo, Setaria viridis; conditions: abraded plants sprayed at 300, 100, 30 and 10 g/ha; about 14 days after treatment
Experimental: as §3, §4, §5, §6, §7

CCN(CC)C(=O)n1cnc(S(=O)(=O)C(F)(F)SCCOC(C)=O)n1 [Example 21]
Pre-emergence activity GR80, LAMPU [1]: 300 g/ha | Pre-emergence activity (GR80) SORVU [2]: * (activity observed, at least at highest rate, but <80% inhibition) | Pre-emergence activity GR80, SINAR [3]: [empty] | Pre-emergence activity (GR80) PANMI [4]: * (activity observed, at least at highest rate, but <80% inhibition) | Post-emergence activity GR80, AEGCY [5]: [empty] | Post-emergence activity GR80, LOLMG [6]: [empty] | Pre-emergence activity GR80, POLCO [7]: [empty] | Post-emergence activity GR80, BROTE [8]: [empty] | Post-emergence activity GR80, ALOMY [9]: [empty] | Pre-emergence activity GR80, SASKR [10]: [empty] | Pre-emergence activity GR80, VERPE [11]: 300 g/ha | Pre-emergence activity GR80, GALAP [12]: 300 g/ha | Post-emergence activity GR80, AGSST [13]: [empty] | Post-emergence activity GR80, AVEFA [14]: [empty] | Pre-emergence activity GR80, STEME [15]: [empty] | Post-emergence activity GR80, AGRRE [16]: [empty] | Post-emergence activity GR80, SETVI [17]: [empty]
